Values of other authors in patent publication US20030152481A1 (priority 2002, published 2003).

Conditions: rat, in vivo

In the case of `OCCc1ccccc1` [2-phenylethanol], the “oral LD50” value is listed as 1790 mg/kg.
